Assay results as given in ChEMBL document CHEMBL3352223, “Synthesis, anti-cancer and anti-inflammatory activity of novel 2-substituted isoflavenes” (Bioorg Med Chem, 2014).
pIC50: −log10 of the molar value.

Key:
[1] = Antiproliferative activity against human SHEP cells after 72 hrs by Alamar blue/spectrophotometric analysis; assay type: functional, cell-based
RAW264.7 = experiment: Antiinflammatory activity against mouse RAW264.7 cells assessed as reduction of LPS-induced IL6 production at 10 uM after 24 hrs by ELISA; assay type: functional; conditions: RAW264.7, 24 h
MDA-MB-231 = experiment: Antiproliferative activity against human MDA-MB-231 cells after 72 hrs by Alamar blue/spectrophotometric analysis; assay type: functional, cell-based; conditions: MDA-MB-231, 72 h

Row | pIC50 (MDA-MB-231) | SMILES | pIC50 [1] | inhibition at 10 µM (RAW264.7)
1 | 3.84 | CC(=O)CC1Oc2cc(O)ccc2C=C1c1ccc(O)cc1 (centres undefined) | 3.91 | > 50%
2 | 4.17 | CC(C)CC(=O)CC1Oc2cc(O)ccc2C=C1c1ccc(O)cc1 (centres undefined) | 3.86 | 
3 | 4.06 | O=C(CC1Oc2cc(O)ccc2C=C1c1ccc(O)cc1)c1ccccc1 (centres undefined) | 3.99 | 
4 | 4.26 | Cc1ccc(C(=O)CC2Oc3cc(O)ccc3C=C2c2ccc(O)cc2)cc1 (centres undefined) | 4.22 | 
5 | 3.70 | CCc1ccc(C(=O)CC2Oc3cc(O)ccc3C=C2c2ccc(O)cc2)cc1 (centres undefined) | 3.42 | 
6 | 5.12 | COc1ccc(C(=O)CC2Oc3cc(O)ccc3C=C2c2ccc(O)cc2)cc1 (centres undefined) | 4.43 | > 50%
7 | 4.43 | O=C(CC1Oc2cc(O)ccc2C=C1c1ccc(O)cc1)c1ccc(Br)cc1 (centres undefined) | 4.48 | 
8 | 3.82 | O=C(CC1Oc2cc(O)ccc2C=C1c1ccc(O)cc1)c1ccc(Cl)cc1 (centres undefined) | 3.78 | 
9 | 3.97 | O=C(CC1Oc2cc(O)ccc2C=C1c1ccc(O)cc1)c1cccc2ccccc12 (centres undefined) | 3.89 | 
10 | 4.44 | C/C(CC1Oc2cc(O)ccc2C=C1c1ccc(O)cc1)=N\Nc1ccc([N+](=O)[O-])cc1[N+](=O)[O-] (centres undefined) | 4.21 | 
11 | 4.28 | Cc1cc(C2Oc3cc(O)ccc3C=C2c2ccc(O)cc2)cc(C)c1N (centres undefined) | 3.99 | > 50%
12 | 4.41 | COc1ccc(C2=C(c3ccc(O)cc3)C(CC(C)=O)Oc3cc(O)ccc32)cc1 (centres undefined) | 4.16 | 
13 | 4.48 | Oc1ccc(C2=Cc3ccc(O)cc3OC2)cc1 [IDRONOXIL] | 5.00 | 
